Values after ≈ are worked out from the molar mass of the structure shown. Where a SMILES comes first, the peptide text is derived from it. [ ]: non-standard residue; d: D form. dPhe(F5) = N[C@H](Cc1c(F)c(F)c(F)c(F)c1F)C(=O)O; dPhe(4-NH2) = Nc1ccc(C[C@@H](N)C(=O)O)cc1; dPhe(4-Me) = Cc1ccc(C[C@@H](N)C(=O)O)cc1; dPhe(2-Me) = Cc1ccccc1C[C@@H](N)C(=O)O; dPhe(4-F) = N[C@H](Cc1ccc(F)cc1)C(=O)O; dPhe(2-F) = N[C@H](Cc1ccccc1F)C(=O)O

The source of these data is publication PMC12526156, “Optimization of the Macrocyclic Tetrapeptide [D-Trp]CJ-15,208 to Prevent Stress-Induced Relapse of Cocaine-Seeking Behavior” (Molecules, 2025).

Data set [1] addresses T1, hKOR (Homo sapiens, UniProt P41145). Briefly: KOR cAMP assay using GloSensor-22F, agonist mode (KOR-CHO-GLO cells). The format is cell-based. To be noted: read-out: KOR Efficacy (%). In general terms: cAMP levels reflect the balance of adenylyl cyclase and phosphodiesterase activity.
Data set [2] in a line: Metabolic stability in mouse liver microsomes. The format is in vitro ADME. To be noted: 1 mg protein/mL; for half-life / microsomal CLint: microsomes. The procedure: (§1) Evaluation of the metabolic stability of the macrocyclic tetrapeptides by human and mouse liver microsomes was performed by Curia Global (Buffalo, NY, USA). […]
(Liver microsomes are a subcellular fraction often used to study metabolism.)

Data set [3] is described as follows: Kinetic aqueous solubility. The format is physicochemical. The following applies: 1% DMSO, pH 7.4. The text has this: Table A1 Stability of [D-Trp]- and [D-Phe^4]CJ-15,208 and selected analogs in human (HLMs) and mouse liver microsomes (MLMs)^1. and kinetic aqueous solubility. | column: Solubility ^2 / (µM)
Data set [4] can be described thus: Metabolic stability in human liver microsomes. The format is in vitro ADME. To be noted: 1 mg protein/mL; for half-life / microsomal CLint: microsomes. The procedure:
as §1

For data set [5], the target named is T1, hKOR. Briefly: Competition binding, [3H]U69,593, hKOR-CHO membranes. To be noted: for Ki: [3H]U69,593, human KOR, ± S.E.M., three independent experiments, read-out: KOR Ki.
In another data set the target is T2, human MOR (Homo sapiens, UniProt P35372).
T2 construct: expressed in transfected cells
Kind of data set: biochemical. To be noted: [3H]DAMGO, human MOR; ± S.E.M., three independent experiments; read-out: MOR Ki. It counts as binding.

[6] abbreviates: 1 µM compound, 37 °C, read-out: MLM t1/2.
Where [7] appears, read: 1 µM compound, 37 °C, read-out: HLM t1/2.

As to `Cc1ccc(C[C@H]2NC(=O)[C@H](Cc3ccccc3)NC(=O)[C@H]3CCCN3C(=O)[C@H](Cc3ccccc3)NC2=O)cc1` [Analog 15] (cyclo(F[dP]F[dPhe(4-Me)])), the Emax at 10 µM on hKOR [1] was 18 ± 1.4%. Moreover, the half-life came out at 2.9 min in data set [2] (setting [6]) and 5.4 min in data set [4] (setting [7]). Also, the microsomal CLint turned out to be 236 µL/min/mg in data set [2] (read-out: MLM CLint) and 129 µL/min/mg in data set [4] (read-out: HLM CLint). In data set [3], the solubility (kinetic) (as a rule, the concentration staying in solution when a stock, usually in DMSO, is diluted into the medium) was 24 µM (≈ 13.3 µg/mL).

Take `Nc1ccc(C[C@H]2NC(=O)[C@H](Cc3ccccc3)NC(=O)[C@H]3CCCN3C(=O)[C@H](Cc3ccccc3)NC2=O)cc1` [Analog 17] (cyclo(F[dP]F[dPhe(4-NH2)])): 10 µM produced 65% inhibition on hKOR [5] (at 10 μM).

Regarding `Cc1ccccc1C[C@H]1NC(=O)[C@H](Cc2ccccc2)NC(=O)[C@H]2CCCN2C(=O)[C@H](Cc2ccccc2)NC1=O` [Analog 13] (cyclo(F[dP]F[dPhe(2-Me)])), on hKOR [5], the “Selectivity (MOR Ki/KOR Ki)” value is 2.5 and the inhibitory constant (Ki) (in general, the equilibrium dissociation constant of an inhibitor or competing ligand from its target) came out at 110 ± 13 nM. Besides, at human MOR, the Ki is 280 ± 8 nM.

`O=C1N[C@H](Cc2ccc(F)cc2)C(=O)N[C@@H](Cc2ccccc2)C(=O)N2CCC[C@@H]2C(=O)N[C@H]1Cc1ccccc1` [Analog 7] (cyclo(F[dP]F[dPhe(4-F)])): on hKOR [1], the Emax at 10 µM was 5.5 ± 7.9%. The figures for the half-life in data set [2] (setting [6]) and in data set [4] (setting [7]) were 3.4 min and 2.3 min, respectively. The microsomal CLint in data set [2] (read-out: MLM CLint) worked out at 202 µL/min/mg; in data set [4] (read-out: HLM CLint), 296 µL/min/mg. The same compound had a kinetic solubility in data set [3] of 25 µM (≈ 13.9 µg/mL).

On to `O=C1N[C@H](Cc2c(F)c(F)c(F)c(F)c2F)C(=O)N[C@@H](Cc2ccccc2)C(=O)N2CCC[C@@H]2C(=O)N[C@H]1Cc1ccccc1` [Analog 12] (cyclo(F[dP]F[dPhe(F5)])), for which, on hKOR [5], the “fold decrease in KOR affinity (fluorine substitution on D-Phe^4)” value is given as 13 fold and the Ki was 310 ± 9.9 nM.

`O=C1N[C@H](Cc2ccccc2F)C(=O)N[C@@H](Cc2ccccc2)C(=O)N2CCC[C@@H]2C(=O)N[C@H]1Cc1ccccc1` [Analog 5] (cyclo(F[dP]F[dPhe(2-F)])): at hKOR [5], the “Selectivity (MOR Ki/KOR Ki)” value was 9. The inhibition constant Ki was found to be 39 ± 0.57 nM on hKOR [5] and 350 ± 22 nM on human MOR. Moreover, the half-life at 1 µM was found to be 1.6 min in data set [2] (mouse liver microsomes, 1 µM compound, 37 °C, read-out: MLM t1/2) and 1.9 min in data set [4] (human liver microsomes, 1 µM compound, 37 °C, read-out: HLM t1/2). The microsomal CLint at 1 µM stood at 430 µL/min/mg in data set [2] (mouse liver microsomes, read-out: MLM CLint) and 373 µL/min/mg in data set [4] (human liver microsomes, read-out: HLM CLint). In data set [3], this compound showed a kinetic solubility of 15 µM (≈ 8.35 µg/mL).
